Results: the CheMixHub ionic liquid set
± gives the uncertainty stated by the source.

Test: xn = mol fraction of the nth substance listed
Conditions: 100 kPa

OC1OC[C@@H](O)[C@H](O)[C@H]1O (stereo not given in full) + CCCCCCCCCCCCCCCC[N+](C)(C)C.[Br-] + O
viscosity [mPa·s]
Conditions | 298.15 K | 308.15 K | 318.15 K
x2 = 7.19e-06, x1 = 0.001926 | 0.934 ± 0.06 | 0.772 ± 0.06 | 0.642 ± 0.06
x2 = 7.19e-06, x1 = 0.002323 | 0.941 ± 0.06 | 0.779 ± 0.06 | 0.647 ± 0.06
x2 = 7.19e-06, x1 = 0.002648 | 0.948 ± 0.06 | 0.784 ± 0.061 | 0.651 ± 0.06
x2 = 7.2e-06, x1 = 0.0009003 | 0.914 ± 0.06 | 0.756 ± 0.06 | 0.629 ± 0.06
x2 = 7.2e-06, x1 = 0.001314 | 0.922 ± 0.06 | 0.763 ± 0.06 | 0.634 ± 0.06
x2 = 7.2e-06, x1 = 0.001634 | 0.928 ± 0.06 | 0.768 ± 0.06 | 0.638 ± 0.06
x2 = 1.438e-05, x1 = 0.002366 | 0.948 ± 0.06 | 0.784 ± 0.06 | 0.651 ± 0.06
x2 = 1.438e-05, x1 = 0.002756 | 0.957 ± 0.06 | 0.791 ± 0.061 | 0.656 ± 0.06
x2 = 1.439e-05, x1 = 0.001528 | 0.931 ± 0.06 | 0.77 ± 0.06 | 0.639 ± 0.06
x2 = 1.439e-05, x1 = 0.001964 | 0.94 ± 0.06 | 0.777 ± 0.06 | 0.645 ± 0.06
x2 = 1.44e-05, x1 = 0.0009094 | 0.918 ± 0.06 | 0.759 ± 0.06 | 0.63 ± 0.06
x2 = 1.44e-05, x1 = 0.001186 | 0.923 ± 0.06 | 0.764 ± 0.06 | 0.634 ± 0.06
x2 = 2.157e-05, x1 = 0.002446 | 0.955 ± 0.06 | 0.79 ± 0.06 | 0.654 ± 0.06
x2 = 2.157e-05, x1 = 0.002688 | 0.961 ± 0.061 | 0.795 ± 0.061 | 0.658 ± 0.06
x2 = 2.158e-05, x1 = 0.00199 | 0.945 ± 0.06 | 0.782 ± 0.06 | 0.647 ± 0.06
x2 = 2.159e-05, x1 = 0.001338 | 0.93 ± 0.06 | 0.77 ± 0.06 | 0.637 ± 0.06
x2 = 2.159e-05, x1 = 0.001717 | 0.939 ± 0.06 | 0.777 ± 0.06 | 0.643 ± 0.06
x2 = 2.16e-05, x1 = 0.0009887 | 0.923 ± 0.06 | 0.763 ± 0.06 | 0.632 ± 0.06

CCCCCC[n+]1ccn(C)c1.O=[N+]([O-])c1cn[n-]c1 + CCCCCCCCCCCCCC[P+](CCCCCC)(CCCCCC)CCCCCC.O=S(=O)([N-]S(=O)(=O)C(F)(F)F)C(F)(F)F
Conditions | viscosity [mPa·s]
283.15 K, x2 = 0.899 | 820 ± 110
